The values that follow come from ChEMBL document CHEMBL5523682, “The formyl peptide receptors FPR1 and FPR2 as targets for inflammatory disorders: recent advances in the development of small-molecule agonists” (Eur J Med Chem, 2024).

Where a SMILES comes first, the peptide text is derived from it. The star is where a group is joined. For = O=C* Some results are limits rather than exact numbers.

As usually defined, the EC50 is the concentration needed to bring the measured effect to its halfway point. Broadly, the bioavailability is the share of a dose that reaches the circulation, judged against a reference dose that is usually intravenous. A high value points to good availability. What is called Kd is the equilibrium constant for the complex coming apart.

A short description of series [1]: Metabolic stability in rat liver microsomes assessed as compound remaining after 30 mins incubation. It counts as ADME, Microsome. Conditions: read-out: Stability.
Series [2] concerns the target T1, fMet-Leu-Phe receptor (Homo sapiens, UniProt P21462).
T1 sequence (P21462 whole entry): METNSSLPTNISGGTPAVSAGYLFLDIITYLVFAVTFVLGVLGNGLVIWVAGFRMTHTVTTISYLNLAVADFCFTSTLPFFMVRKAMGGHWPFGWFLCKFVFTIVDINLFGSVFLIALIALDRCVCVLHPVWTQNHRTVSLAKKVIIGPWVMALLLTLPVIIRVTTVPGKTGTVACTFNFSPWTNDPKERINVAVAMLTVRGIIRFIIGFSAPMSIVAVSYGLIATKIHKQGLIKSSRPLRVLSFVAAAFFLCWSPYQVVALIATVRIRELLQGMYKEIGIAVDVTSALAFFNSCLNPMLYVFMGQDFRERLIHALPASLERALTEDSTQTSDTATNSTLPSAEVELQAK
The series can be described thus: Agonist activity against human FPR1 expressed in HL-60 cells by Fluo4-AM dye based intracellular calcium flux assay. It counts as functional, cell-based. A general note: Calcium assays in cells follow changes in intracellular calcium, usually with a dye or a luminescent sensor.

Series [3] has as its target T2, N-formyl peptide receptor 2 (Homo sapiens, UniProt P25090).
T2 sequence (P25090 whole entry): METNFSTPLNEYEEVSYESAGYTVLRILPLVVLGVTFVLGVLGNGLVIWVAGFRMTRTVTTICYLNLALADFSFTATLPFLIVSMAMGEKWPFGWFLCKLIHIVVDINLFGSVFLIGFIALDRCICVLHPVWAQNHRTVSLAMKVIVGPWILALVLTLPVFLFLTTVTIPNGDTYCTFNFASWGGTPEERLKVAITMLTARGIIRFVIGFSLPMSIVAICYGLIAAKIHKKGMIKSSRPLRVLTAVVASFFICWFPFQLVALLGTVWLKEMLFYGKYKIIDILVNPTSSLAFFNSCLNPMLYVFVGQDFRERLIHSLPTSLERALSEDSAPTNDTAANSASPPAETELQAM
As to the kind of experiment: Agonist activity at human FPR2 expressed in HL-60 cells by Fluo4-AM dye based intracellular calcium flux assay. The format is functional, cell-based.

Series [4] is described as follows: Intrinsic clearance in rat liver microsomes. It counts as ADME, Microsome.
The nature of series [5]: Half life in rat liver microsomes measured upto 60 mins by LC-MS/MS analysis. The format is ADME, Microsome. Conditions: 1 h. A general note: Microsomes from liver hold many membrane-bound enzymes, among them those of drug oxidation.
Series [6] is described as follows: Oral bioavailability in human at 1 mg/kg. The format is ADME, organism-based. The note with it: in vivo.
Series [7] concerns the target T2, N-formyl peptide receptor 2. The series can be described thus: Binding affinity to human FPR2 expressed in CHO cells assessed as dissociation constant. The format is cell-based.
The target of series [8] is T3, fMet-Leu-Phe receptor (Mus musculus, UniProt P33766).
T3 sequence (P33766 whole entry): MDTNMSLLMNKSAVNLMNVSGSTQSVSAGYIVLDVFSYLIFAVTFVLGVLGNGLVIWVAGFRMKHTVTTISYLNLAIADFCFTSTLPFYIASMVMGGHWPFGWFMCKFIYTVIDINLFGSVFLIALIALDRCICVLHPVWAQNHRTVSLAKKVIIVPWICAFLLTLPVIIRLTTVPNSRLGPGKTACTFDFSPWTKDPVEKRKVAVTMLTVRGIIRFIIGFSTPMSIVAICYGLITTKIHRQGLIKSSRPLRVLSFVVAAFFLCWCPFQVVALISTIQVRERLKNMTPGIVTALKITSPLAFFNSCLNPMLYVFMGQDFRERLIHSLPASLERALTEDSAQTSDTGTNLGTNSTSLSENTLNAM
The series can be described thus: Binding affinity to mouse FPR1 expressed in CHO cells assessed as dissociation constant. It counts as cell-based.

Series [9] concerns the target T2, N-formyl peptide receptor 2. The series can be described thus: Agonist activity at human FPR2 expressed in CHO cells assessed as increase in calcium mobilization by Fluo-4 AM dye based fluorescence assay. The format is functional, cell-based.
Series [10] addresses T1, fMet-Leu-Phe receptor. The series can be described thus: Agonist activity at human FPR1. The format is functional.
Series [11] concerns the target T4, Formyl peptide receptor 2 (Mus musculus, UniProt O88536).
T4 sequence (O88536 whole entry): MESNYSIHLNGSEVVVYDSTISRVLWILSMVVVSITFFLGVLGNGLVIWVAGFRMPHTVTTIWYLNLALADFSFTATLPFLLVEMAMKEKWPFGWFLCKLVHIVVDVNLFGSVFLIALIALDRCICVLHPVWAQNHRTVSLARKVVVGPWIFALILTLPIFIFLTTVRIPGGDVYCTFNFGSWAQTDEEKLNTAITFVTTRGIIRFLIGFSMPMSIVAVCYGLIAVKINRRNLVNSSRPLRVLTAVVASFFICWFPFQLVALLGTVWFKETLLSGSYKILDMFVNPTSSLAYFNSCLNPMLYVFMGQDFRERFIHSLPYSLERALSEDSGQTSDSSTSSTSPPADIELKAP
As to the kind of experiment: Agonist activity at mouse FPR2.

Series [12] has as its target T3, fMet-Leu-Phe receptor. The series can be described thus: Agonist activity at mouse FPR1. It counts as functional.
For series [13], the target named is T2, N-formyl peptide receptor 2. The series can be described thus: Agonist activity at human FPR2. It counts as functional.
For series [14] the target is unchanged. The series can be described thus: Agonist activity at FPR2 (unknown origin) expressed in CHO cells assessed as Calcium mobilization incubated for 30 min by fluorometry method. It counts as functional, cell-based.
For series [15], the target named is T1, fMet-Leu-Phe receptor. The series can be described thus: Agonist activity at FPR1 (unknown origin) transfected in human HL60 cells assessed as calcium mobilization incubated for 30 mins and measured for 15 mins by fluorometry method. The format is functional, cell-based, HL-60.
In series [16] the target is T2, N-formyl peptide receptor 2. The series can be described thus: Agonist activity at FPR2 (unknown origin) in HEK293 cells. It counts as functional, cell-based.
For series [17], the target named is T1, fMet-Leu-Phe receptor. As to the kind of experiment: Agonist activity at FPR1 (unknown origin) transfected in CHO cells assessed as increase in calcium mobilization by Fluo-4AM dye based assay. The format is functional, cell-based.
Series [18] addresses T2, N-formyl peptide receptor 2. As to the kind of experiment: Agonist activity at FPR2 (unknown origin) transfected in CHO cells assessed as increase in calcium mobilization by Fluo-4AM dye based assay. It counts as functional, cell-based.
Series [19] has the same target. The series can be described thus: Agonist activity at human FPR2 expressed in HL-60 cells assessed as inhibition of WKYMVM-induced calcium mobilization. It counts as functional, cell-based.
Series [20] addresses T1, fMet-Leu-Phe receptor. The series can be described thus: Agonist activity at FPR1 (unknown origin) transfected in CHO cells by cAMP assay. It counts as functional, cell-based. For orientation: cAMP levels reflect the balance of adenylyl cyclase and phosphodiesterase activity.
Series [21] in a line: Permeability of compound in PBS buffer at pH 5.5 by UPLC-MS spectrometry based PAMPA assay. The format is ADME. The note with it: read-out: permeability.
The target in series [22] is T2, N-formyl peptide receptor 2. As to the kind of experiment: Agonist activity at FPR2 (unknown origin) transfected in CHO cells by cAMP assay. It counts as functional, cell-based.
Series [23] shares this target. As to the kind of experiment: Agonist activity at FPR2 (unknown origin) expressed in CHO cells by cAMP assay. The format is functional, cell-based.
Series [24] concerns the target T1, fMet-Leu-Phe receptor. The series can be described thus: Agonist activity at FPR1 (unknown origin) expressed in CHO cells by cAMP assay. The format is functional, cell-based.

For `N#Cc1ccc(C[C@@H](NC(=O)Nc2ccc(F)cc2)C(=O)NCC2(c3ccc(F)c(Cl)c3)CC2)cc1`, in [1], the remaining at 0.5 h stood at 20%.
For `COc1cccc(Cc2cc(C)nn(CC(=S)Nc3ccccc3)c2=O)c1`, the EC50 (at fMet-Leu-Phe receptor [2]; in series [3]) was above 50000 nM each time.
On to `N#Cc1ccc(C[C@H](NC(=O)Nc2ccc(F)cc2)C(=O)NCC2(c3ccc(F)c(Cl)c3)CC2)cc1`, for which, in series [4], the CLH was 15 µL/min/mg. The compound also displayed a t1/2 in series [5] of 48 min.
Turning to `O=C(NCc1ccc(Br)cc1F)[C@@H]1C2CCC([C@H]1C(=O)NC1CCNCC1)C21CC1` (stereo partly specified), the bioavailability in [6] turned out to be 0.3%.
As to `CCCCC[C@H](O)[C@H](O)/C=C/C=C/C=C\C=C\[C@@H](O)CCCC(=O)O`, the Kd in series [7] worked out at 1.7 nM; on fMet-Leu-Phe receptor [8] it was 1.5 nM.
Turning to `CCC1(C(C)C)NC(=O)N(CC(=O)Nc2ccc(Br)cc2)C1=O` (stereo unspecified), in series [9], the EC50 was determined as 0.5 nM.
Consider `CC[C@H](C)[C@H](NC(=O)[C@@H](NC(=O)[C@H](Cc1ccccc1)NC(=O)[C@H](CC(C)C)NC(=O)[C@H](CCSC)NC=O)[C@@H](C)CC)C(=O)O` (For-MLFII-OH), for which the EC50 was 1400 nM on fMet-Leu-Phe receptor [10], 910 nM in [11], 0.03 nM on fMet-Leu-Phe receptor [12] and 3.8 nM in series [13].
As to `CC[C@H](C)[C@H](NC(=O)Nc1ccc(Br)cc1F)C(=O)O`, the EC50 in series [9] is 87 nM.
On to Ac-AMVSEFLKQAWIENEEQEYVVQTVK-OH, for which the figures for the EC50 (in series [14]; at fMet-Leu-Phe receptor [15]) were 1800 nM and 1400 nM, respectively.
Regarding `O=C(NCc1ccc(Br)cc1F)[C@@H]1C2CCC([C@H]1C(=O)NC1CCNCC1F)C21CC1` (stereo partly specified), in [6], the bioavailability was found to be 12%. Also, the concentration for a half-maximal effect (EC50) in series [16] was 2 nM.
Turning to `CC(C)C[C@H](NC(=O)CNC(=O)Nc1ccc(Br)cc1)C(=O)OC(C)(C)C`, the EC50 was 2300 nM at fMet-Leu-Phe receptor [17] and 600 nM in series [18].
As to `CC[C@H](C)[C@H](NC(=O)[C@H](CC(N)=O)NC(=O)[C@@H](NC(=O)[C@H](CCSC)NC=O)[C@@H](C)O)C(=O)N[C@@H](CCCNC(=N)N)C(=O)N[C@@H](CCCCN)C(=O)N[C@@H](CO)C(=O)N[C@@H](Cc1cnc[nH]1)C(=O)N1CCC[C@H]1C(=O)N[C@@H](CC(C)C)C(=O)N[C@@H](CCSC)C(=O)N[C@@H](CCCCN)C(=O)N[C@H](C(=O)N[C@H](C(=O)N[C@@H](CC(N)=O)C(=O)O)[C@@H](C)CC)[C@@H](C)CC` (For-MTNIRKSHPLMKIIN-OH), the EC50 in series [19] was found to be 6.9 nM.
With `COc1cc(F)c([C@@H]2CNC(=O)[C@H]2Nc2cc(-c3ccc(Cl)cc3)no2)c(F)c1`, the concentration for a half-maximal effect (EC50) on fMet-Leu-Phe receptor [20] amounted to 470 nM; in series [22], 10 nM. Also, in [21], the Papp came to 110 ×10⁻⁶ cm/s.
For `O=C(Nc1ccc(Br)cc1)[C@@H]1C2CCC([C@@H]1C(=O)O)C21CC1` (stereo partly specified), the half-maximal effective concentration (EC50) on fMet-Leu-Phe receptor [20] was determined as 2200 nM; in [22] it was 280 nM.
`COc1cc(F)c([C@H]2CC(=O)NC[C@@H]2NC(=O)Nc2ccc(Cl)cc2)c(F)c1` (racemic): the EC50 was below 1 nM in [23] and 1000 nM on fMet-Leu-Phe receptor [24].
Turning to H-AKKVFKRLEKLFSKIQNDK-OH, in series [19], the concentration for a half-maximal effect (EC50) amounted to 300 nM.
On to `COCCN1CC[C@H](NC(=O)Nc2ccc(Cl)cc2)[C@@H](c2c(F)cc(OC)cc2F)C1` (racemic), for which the results for the concentration for a half-maximal effect (EC50) (in [23]; on fMet-Leu-Phe receptor [24]) were below 1 nM and 1000 nM, respectively.
